Laboratory results reported in patent US10647694B2, “Diphenylaminopyrimidine and triazine compound, and pharmaceutical composition and use thereof” (ARROMAX PHARMATECH CO., LTD., priority 2016, dated 2020).
Read-outs that look alike come from different tables or passages of the source.

Experiments:
[1] = biological target: ALK enzyme (Homo sapiens, UniProt Q9UM73); experiment: In-vitro ALK kinase inhibitory activity (HTRF kinEASE TK kit); format: biochemical; details: inhibitory activity for ALK enzyme
Chain of ALK enzyme (Q9UM73 19-1620 limits assumed): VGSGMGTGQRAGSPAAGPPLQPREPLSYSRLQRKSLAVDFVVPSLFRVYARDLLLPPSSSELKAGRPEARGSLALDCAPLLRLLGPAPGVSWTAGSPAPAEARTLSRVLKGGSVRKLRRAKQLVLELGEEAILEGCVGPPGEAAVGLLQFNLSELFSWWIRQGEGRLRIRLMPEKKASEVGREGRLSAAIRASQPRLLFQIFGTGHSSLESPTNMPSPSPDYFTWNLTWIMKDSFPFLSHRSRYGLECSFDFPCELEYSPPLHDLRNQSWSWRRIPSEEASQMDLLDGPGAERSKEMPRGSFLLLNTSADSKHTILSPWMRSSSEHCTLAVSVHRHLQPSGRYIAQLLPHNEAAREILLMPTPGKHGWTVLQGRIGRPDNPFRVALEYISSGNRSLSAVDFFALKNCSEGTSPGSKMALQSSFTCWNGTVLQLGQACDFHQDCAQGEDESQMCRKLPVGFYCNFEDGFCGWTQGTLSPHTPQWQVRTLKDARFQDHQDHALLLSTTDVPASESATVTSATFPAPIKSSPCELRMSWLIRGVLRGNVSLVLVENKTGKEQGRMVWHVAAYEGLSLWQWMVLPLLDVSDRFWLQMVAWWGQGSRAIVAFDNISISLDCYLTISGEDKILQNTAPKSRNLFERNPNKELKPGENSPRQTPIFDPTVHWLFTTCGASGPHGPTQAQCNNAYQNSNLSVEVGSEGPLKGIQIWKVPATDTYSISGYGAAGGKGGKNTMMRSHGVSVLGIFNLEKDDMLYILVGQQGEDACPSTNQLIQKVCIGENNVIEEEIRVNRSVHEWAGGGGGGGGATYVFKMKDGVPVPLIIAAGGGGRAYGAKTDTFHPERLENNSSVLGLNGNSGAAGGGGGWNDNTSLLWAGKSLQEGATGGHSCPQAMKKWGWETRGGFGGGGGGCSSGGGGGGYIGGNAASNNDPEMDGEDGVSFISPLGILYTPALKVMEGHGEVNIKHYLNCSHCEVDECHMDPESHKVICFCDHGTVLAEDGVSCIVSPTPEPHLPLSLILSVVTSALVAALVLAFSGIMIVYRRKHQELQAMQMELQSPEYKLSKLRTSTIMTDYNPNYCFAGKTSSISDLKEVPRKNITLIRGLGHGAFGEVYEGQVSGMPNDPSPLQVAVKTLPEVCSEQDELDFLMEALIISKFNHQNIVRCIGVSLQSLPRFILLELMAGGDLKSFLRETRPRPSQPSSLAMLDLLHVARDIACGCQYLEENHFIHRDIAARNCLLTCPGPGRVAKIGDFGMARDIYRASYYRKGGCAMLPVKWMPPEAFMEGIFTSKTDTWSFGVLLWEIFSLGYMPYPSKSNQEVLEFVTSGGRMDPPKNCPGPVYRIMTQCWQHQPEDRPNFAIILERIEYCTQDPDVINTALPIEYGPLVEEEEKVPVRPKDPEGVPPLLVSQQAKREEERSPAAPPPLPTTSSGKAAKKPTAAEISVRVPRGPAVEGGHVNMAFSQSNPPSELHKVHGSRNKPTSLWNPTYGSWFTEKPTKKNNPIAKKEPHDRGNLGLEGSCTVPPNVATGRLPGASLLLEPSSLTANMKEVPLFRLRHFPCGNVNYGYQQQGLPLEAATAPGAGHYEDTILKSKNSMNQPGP
Description: Anaplastic Lymphoma Kinase (ALK) Inhibitory Activity The in-vitro kinase assay was performed using the HTRF kinEASE TK kit available from Cisbio. The operation steps are indicated in the instructions of the kit. This method was used to detect the inhibitory effect of the compound to be tested on the activity of ALK enzymes in vitro, including wild-type ALK (Cat.PV3867, Invitrogen), ALK L1196M (Cat. PV6168, Life technologies), and ALK F1174L (Cat. PV6160, Life technologies). The specific operation steps were as follows. […] In addition to the control wells, 4 μL of the diluted compound solution to be tested was added to the reaction wells, and 4 μL of the 2.5% DMSO solution corresponding to the ALK enzyme previously formulated was added to the control wells. (2) 2 μL of a TK-biotin substrate solution previously formulated in a substrate concentration corresponding to the ALK enzyme was added to all reaction wells. (3) 2 μL of a previously prepared enzyme solution of corresponding concentration was added to all the reaction wells except the negative wells, and 2 μL of the 1× kinase buffer corresponding to the enzyme was added to the negative wells to make up the volume. The plate was sealed with a membrane, and incubated for 10 min at room temperature after mixing uniformly, such that the compounds were bond to the enzyme fully. (4) 2 μL of an ATP solution in a concentration corresponding to the ALK enzyme was added to all the reaction wells to initiate the kinase reaction, where the enzyme reaction time by ALK was 60 minutes. (5) An ALK test solution was prepared 5 minutes before the end of the kinase reaction. Streptavidin-XL665 and TK antibody europium cryptate (1:100) solutions for assay having a concentration corresponding to the enzyme were prepared using the detection buffer in the kit. (6) After the completion of the kinase reaction, 5 μl of diluted Streptavidin-XL665 was added to all the reaction wells respectively, and mixed uniformly, and then the diluted TK antibody europium cryptate solution for assay was added immediately. (7) The plate was sealed, mixed uniformly and allowed to react at room temperature for 1 h. The fluorescence signal (excitation at 320 nm, and emission at 665 nm and 615 nm) was detected using the ENVISION instrument (Perkinelmer). The inhibition rate for each well was calculated from the values of the fully active wells and the background signal wells. The values of replicated wells were averaged, and the half-maximal inhibitory activity (IC50) of each compound to be tested was fitted with a professional drawing analysis software PRISM 5.0.

[2] = tested on: Ba/F3 cells; experiment: Tumor cell growth inhibition test (CCK8 detection), Ba/F3; format: cell-based, mouse
Description: (§1) Growth Inhibition Test of the Series of Compounds on Various Tumor Cells (CCK8 Detection)
(1) Ba/F3 mouse IL-3 dependent pro-B lymphocyte cell line, RPMI 1640+10% FBS+10 ng/ml Interleukin-3+1% Sodium Pyruvate;
(§2) (1) Cell culture • a) Cells in logarithmic growth phase were collected, counted, and re-suspended in a complete medium. • b) The cell concentration was adjusted to an appropriate concentration, and inoculated into a 96-well plate in an amount of 100 μl of cell suspension per well. • c) The cells were incubated for 24 hrs in an incubator at 37° C. with 100% relative humidity and 5% CO2.
(§3) (2) Test of relative inhibition rate • 1) Cells in logarithmic growth phase were collected, counted, and re-suspended in a complete medium. The cell concentration was adjusted to an appropriate concentration (determined according to the optimal test result of cell density), and inoculated into a 96-well plate in an amount of 100 μl of cell suspension per well. The cells were incubated for 24 hrs in an incubator at 37° C. with 100% relative humidity and 5% CO2. • 2) The compound to be tested was diluted with the medium to the corresponding action concentration, and […] were added in an amount of 25 µl/well.
(§4) The IC50 curve was fitted using the software Graphpad Prism 5 and using the calculation formula log(inhibitor) vs response and the IC50 value was calculated.

[3] = tested on: Karpas 299 cells; experiment: Tumor cell growth inhibition test (CCK8 detection), Karpas 299; format: cell-based, human
Description: as §1
(2) Karpas 299 human T lymphoma cell line, RPMI 1640+10% FBS+1% Sodium Pyruvate;
as §2, §3, §4

[4] = tested on: NCI-H2228 cells; experiment: Tumor cell growth inhibition test (CCK8 detection), NCI-H2228; format: cell-based, human
Description: as §1
(3) NCI-H2228 human non-small cell lung cancer cell line, RPMI 1640+10% FBS+1% Sodium Pyruvate;
as §2, §3, §4

[5] = tested on: NCI-H3122 cells; experiment: Tumor cell growth inhibition test (CCK8 detection), NCI-H3122; format: cell-based, human
Description: as §1
(4) NCI-H3122 human lung cancer cell line, RPMI 1640+10% FBS+1% Sodium Pyruvate;
as §2, §3, §4

[6] = tested on: NCI-H2228 nude mice xenografts; experiment: In-vivo pharmacodynamic evaluation, NCI-H2228 subcutaneous xenograft; details: 14 days, day 21
Description: In-Vivo Pharmacodynamic Evaluation
SCID Beige mice, female, 5-6 weeks old, weighed 18+2 g, purchased from Beijing HFK Bioscience Co., Ltd., bred in an SPF level environment.
NCI-H2228 cells were cultured in PRMI-1640 containing 10% fetal bovine serum (FBS) and 1% sodium pyruvate. The cells were cultured in an incubator at 37° C. with 5% CO2.
Establishment of subcutaneous tumor transplantation model in nude mice by cell inoculation: Tumor cells in logarithmic growth phase were collected, counted and re-suspended in PRMI-1640 basal medium. Matrigel was added at a ratio of 1:1, and the concentration of the cell suspension was adjusted to 6×10^7/ml. Tumor cells were subcutaneously inoculated to the right back of nude mice in an amount of 6×10^6/0.1 mL/mouse using a 1 mL syringe (with a […]).
When the tumor volume reached about 200 mm^3, the animals were randomly grouped according to randomized block method, so that the difference in tumor volume of each group was within 10% of the mean. There were 5 groups in total, each having 8 animals. The day of grouping was recorded as Day 0, and the animals were administered immediately after grouping. Compound I-3 of the present invention and Ceritinib were orally administered once a day for consecutive 14 days, and then observed for 7 days. The weight and tumor size of the animals were measured twice a week during the experiment. The clinical symptoms were observed and recorded daily. After the animals were weighed for the last time on Day 21, they were sacrificed by euthanization with CO2. The tumors were taken, weighed and photographed, and the average tumor size was calculated, to investigate the growth inhibitory effect of the test substance Compound I-3 on human lung cancer NCI-H2228 nude mice xenografts under the experimental conditions.
When the tumor in the tumor-bearing mice grew to a measurable size, the mice were randomly divided into 5 groups according to the principle of equal mean tumor volume using SPSS 17.0 software. Compound I-3 was administered by intragastric administration at a dosage of 30, 10, and 3 mg/kg per day. The positive control ceritinib was administered by intragastric administration at a dose of 10 mg/kg per day in a volume of 0.1 ml/10 g. These agents were administered once a day for consecutive 14 days. The animals in the negative control group were given an equal amount of solvent (1% DMSO in physiological saline). During the administration and recovery periods, the body weight and tumor size of the mice were measured 2-3 times per week. The tumor volume and relative tumor volume were calculated based on the measured data. The tumor volume (TV) was calculated by a formula below: TV=1/2×a×b^2, where a and b represent the major and minor diameters of the tumor, respectively. According to the measurement results, the relative tumor volume (RTV) was calculated, by a formula below: RTV=Vt/V0, where V0 is the tumor volume at the start of the experiment, and Vt is the tumor volume measured each time.

[7] = Homo sapiens, KARPAS-299, 72 hrs
[8] = Homo sapiens, NCI-H2228, 72 hrs
[9] = Homo sapiens, NCI-H3122, 72 hrs

Row | Compound | IC50 ([2]; 72 hrs) [nM] | IC50 ([3]; 72 hrs) [nM] | IC50 ([4]; 72 hrs) [nM] | IC50 ([5]; 72 hrs) [nM] | IC50 ([2]; Mus musculus, BaF3, 72 hrs) [nM] | IC50 [3, 7] [nM] | IC50 [4, 8] [nM] | IC50 [5, 9] [nM] | IR (%) ([6]; 10 mg/kg qd intragastric) | RTV d21 ([6]; 10 mg/kg qd intragastric) | T/C (%) ([6]; 10 mg/kg qd intragastric) | other results
1 | COc1cc(C2CCNCC2)c(C)cc1Nc1ncc(Cl)c(Nc2ccccc2S(=O)(=O)C(C)C)n1 [Compound I-3, 5-chloro-N4-(2-(isopropylsulfonyl)phenyl)-N2-(2-D3-methoxy-5-methyl-4-(piperidin-4-yl)phenyl)pyrimidin-2,4-diamine] | 1240 | 7.64 | 41.3 | 4.03 |  |  |  |  |  |  |  | IC50 ([1]; listed as 3, read-out: IC50 range): 1 to 10 nM
2 | [2H]C([2H])([2H])C([2H])(Oc1cc(C2CCNCC2)c(C)cc1Nc1ncc(Cl)c(Nc2ccccc2S(=O)(=O)C(C)C)n1)C([2H])([2H])[2H] |  |  |  |  | 2890 | 45.7 | 111 | 28.4 |  |  |  | 
3 | Cc1cc(Nc2ncc(Cl)c(Nc3ccccc3S(=O)(=O)C(C)C)n2)c(OC(C)C)cc1C1CCNCC1 [Ceritinib, reference compound] |  |  |  |  | 2390 | 35.6 | 97.1 | 27.2 | 26.07 | 2.68 ± 0.28 | 71.47 | 
4 | 5-chloro-N2-(2-D6-ethoxy-5-methyl-4-(piperidin-4-yl)phenyl)-N4-(2-(isopr opylsulfonyl)phenyl))pyrimidin-2,4-diamine [Compound I-14] | 1990 | 5.23 | 45.5 | 6.09 |  |  |  |  |  |  |  | IC50 ([1]; read-out: IC50 range): 1 to 10 nM
5 | [2H]C([2H])([2H])Oc1cc(C2CCNCC2)c(C)cc1Nc1ncc(Cl)c(Nc2ccccc2S(=O)(=O)C(C)C)n1 [Compound I-3, 5-chloro-N4-(2-(isopropylsulfonyl)phenyl)-N2-(2-D3-methoxy-5-methyl-4-(piperidin-4-yl)phenyl)pyrimidin-2,4-diamine] |  |  |  |  |  |  |  |  | 53.39 | 1.70 ± 0.20 | 45.33 | IR (%) ([6]; 3 mg/kg qd intragastric): 12.86%; RTV d21 ([6]; 3 mg/kg qd intragastric): 3.12 ± 0.23; T/C (%) ([6]; 3 mg/kg qd intragastric): 77.45%; IR (%) ([6]; 30 mg/kg qd intragastric): 77.14%; RTV d21 ([6]; 30 mg/kg qd intragastric): 0.79 ± 0.17; T/C (%) ([6]; 30 mg/kg qd intragastric): 21.07%
